{"source": "the supplement of paper PMC10307832", "test_in_all_cases": "relative viability (nuclei count vs DMSO), 5 days (fraction); higher = more cells survive", "key": {"[1]": {"compound": "C[C@@]1(C(=O)Nc2ccc(F)nc2)CCCN1c1nc(Nc2cc(C3CC3)n[nH]2)c2cccn2n1 + C[C@@H](Oc1cc(-c2cnn(C3CCNCC3)c2)cnc1N)c1c(Cl)ccc(F)c1Cl [Crizotinib] (partner 1 µM)", "in_short": "(§1)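 Each reported value is a median over duplicate plates. It expresses relative viability: treated-well nuclei count divided by vehicle-well nuclei count. Lung cancer cell lines in 1536-well plates were dosed by pin tool a day after seeding, alone with one drug or with a fixed anchor-drug dose plus five library-drug doses (not always all listed) in √10 steps, and nuclei were counted after 5 days.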"}, "[2]": {"compound": "C[C@@]1(C(=O)Nc2ccc(F)nc2)CCCN1c1nc(Nc2cc(C3CC3)n[nH]2)c2cccn2n1 + CC(C)C[C@H](NC(=O)[C@H](Cc1ccccc1)NC(=O)c1cnccn1)B(O)O [Bortezomib] (partner 0.002 µM)", "in_short": "as §1"}, "[3]": {"compound": "C[C@@]1(C(=O)Nc2ccc(F)nc2)CCCN1c1nc(Nc2cc(C3CC3)n[nH]2)c2cccn2n1 + Nc1ncn([C@H]2C[C@H](O)[C@@H](CO)O2)c(=O)n1 [Decitabine] (partner 2 µM)", "in_short": "as §1"}, "[4]": {"compound": "C[C@@]1(C(=O)Nc2ccc(F)nc2)CCCN1c1nc(Nc2cc(C3CC3)n[nH]2)c2cccn2n1 + O=C(c1cc(Cc2n[nH]c(=O)c3ccccc23)ccc1F)N1CCN(C(=O)C2CC2)CC1 [Olaparib] (partner 8 µM)", "in_short": "as §1"}}, "data": [{"cell line": "UMC-11", "values": [{"measurement": "relative viability", "setting": "[1]; first compound 0.04 µM", "result": 0.615}, {"measurement": "relative viability", "setting": "[1]; first compound 0.1265 µM", "result": 0.628}, {"measurement": "relative viability", "setting": "[1]; first compound 0.4 µM", "result": 0.534}, {"measurement": "relative viability", "setting": "[1]; first compound 1.265 µM", "result": 0.328}, {"measurement": "relative viability", "setting": "[2]; first compound 0.04 µM", "result": 0.79}, {"measurement": "relative viability", "setting": "[2]; first compound 0.1265 µM", "result": 0.829}, {"measurement": "relative viability", "setting": "[2]; first compound 0.4 µM", "result": 0.598}, {"measurement": "relative viability", "setting": "[2]; first compound 1.265 µM", "result": 0.733}, {"measurement": "relative viability", "setting": "[3]; first compound 0.04 µM", "result": 0.638}, {"measurement": "relative viability", "setting": "[3]; first compound 0.1265 µM", "result": 0.45}, {"measurement": "relative viability", "setting": "[3]; first compound 0.4 µM", "result": 0.317}, {"measurement": "relative viability", "setting": "[3]; first compound 1.265 µM", "result": 0.646}, {"measurement": "relative viability", "setting": "[4]; first compound 0.04 µM", "result": 0.376}, {"measurement": "relative viability", "setting": "[4]; first compound 0.1265 µM", "result": 0.316}, {"measurement": "relative viability", "setting": "[4]; first compound 0.4 µM", "result": 0.336}, {"measurement": "relative viability", "setting": "[4]; first compound 1.265 µM", "result": 0.426}]}]}
